Data as given in BindingDB's records for PubMed 34998058 (Central South University, 2022).
One block for each compound: values may come before it.

Columns and labels:
[1] = Inhibition of P-gp in human K562/A02 cells assessed as adriamycin IC50 at 8 ug/ml
[2] = Inhibition of P-gp in human K562 cells assessed as adriamycin IC50 at 4 ug/ml
[3] = Inhibition of P-gp in human K562/A02 cells assessed as adriamycin IC50 at 4 ug/ml
[4] = Inhibition of P-gp in human K562 cells assessed as adriamycin IC50 at 8 ug/ml
[5] = Inhibition of P-gp in human K562 cells assessed as adriamycin IC50 at 6 ug/ml
[6] = Inhibition of P-gp in human K562/A02 cells assessed as adriamycin IC50 at 6 ug/ml
[7] = Inhibition of P-gp in human K562/A02 cells assessed as adriamycin IC50 at 10 ug/ml
[8] = Inhibition of P-gp in human K562 cells assessed as adriamycin IC50 at 2 ug/ml
[9] = Inhibition of P-gp in human K562 cells assessed as adriamycin IC50 at 10 ug/ml
[10] = Inhibition of P-gp in human K562/A02 cells assessed as adriamycin IC50 at 2 ug/ml
[11] = molecular target: Maltase-glucoamylase (Homo sapiens, UniProt O43451); test: Inhibition of alpha-glucosidase (unknown origin)
Chain of Maltase-glucoamylase (O43451 whole entry): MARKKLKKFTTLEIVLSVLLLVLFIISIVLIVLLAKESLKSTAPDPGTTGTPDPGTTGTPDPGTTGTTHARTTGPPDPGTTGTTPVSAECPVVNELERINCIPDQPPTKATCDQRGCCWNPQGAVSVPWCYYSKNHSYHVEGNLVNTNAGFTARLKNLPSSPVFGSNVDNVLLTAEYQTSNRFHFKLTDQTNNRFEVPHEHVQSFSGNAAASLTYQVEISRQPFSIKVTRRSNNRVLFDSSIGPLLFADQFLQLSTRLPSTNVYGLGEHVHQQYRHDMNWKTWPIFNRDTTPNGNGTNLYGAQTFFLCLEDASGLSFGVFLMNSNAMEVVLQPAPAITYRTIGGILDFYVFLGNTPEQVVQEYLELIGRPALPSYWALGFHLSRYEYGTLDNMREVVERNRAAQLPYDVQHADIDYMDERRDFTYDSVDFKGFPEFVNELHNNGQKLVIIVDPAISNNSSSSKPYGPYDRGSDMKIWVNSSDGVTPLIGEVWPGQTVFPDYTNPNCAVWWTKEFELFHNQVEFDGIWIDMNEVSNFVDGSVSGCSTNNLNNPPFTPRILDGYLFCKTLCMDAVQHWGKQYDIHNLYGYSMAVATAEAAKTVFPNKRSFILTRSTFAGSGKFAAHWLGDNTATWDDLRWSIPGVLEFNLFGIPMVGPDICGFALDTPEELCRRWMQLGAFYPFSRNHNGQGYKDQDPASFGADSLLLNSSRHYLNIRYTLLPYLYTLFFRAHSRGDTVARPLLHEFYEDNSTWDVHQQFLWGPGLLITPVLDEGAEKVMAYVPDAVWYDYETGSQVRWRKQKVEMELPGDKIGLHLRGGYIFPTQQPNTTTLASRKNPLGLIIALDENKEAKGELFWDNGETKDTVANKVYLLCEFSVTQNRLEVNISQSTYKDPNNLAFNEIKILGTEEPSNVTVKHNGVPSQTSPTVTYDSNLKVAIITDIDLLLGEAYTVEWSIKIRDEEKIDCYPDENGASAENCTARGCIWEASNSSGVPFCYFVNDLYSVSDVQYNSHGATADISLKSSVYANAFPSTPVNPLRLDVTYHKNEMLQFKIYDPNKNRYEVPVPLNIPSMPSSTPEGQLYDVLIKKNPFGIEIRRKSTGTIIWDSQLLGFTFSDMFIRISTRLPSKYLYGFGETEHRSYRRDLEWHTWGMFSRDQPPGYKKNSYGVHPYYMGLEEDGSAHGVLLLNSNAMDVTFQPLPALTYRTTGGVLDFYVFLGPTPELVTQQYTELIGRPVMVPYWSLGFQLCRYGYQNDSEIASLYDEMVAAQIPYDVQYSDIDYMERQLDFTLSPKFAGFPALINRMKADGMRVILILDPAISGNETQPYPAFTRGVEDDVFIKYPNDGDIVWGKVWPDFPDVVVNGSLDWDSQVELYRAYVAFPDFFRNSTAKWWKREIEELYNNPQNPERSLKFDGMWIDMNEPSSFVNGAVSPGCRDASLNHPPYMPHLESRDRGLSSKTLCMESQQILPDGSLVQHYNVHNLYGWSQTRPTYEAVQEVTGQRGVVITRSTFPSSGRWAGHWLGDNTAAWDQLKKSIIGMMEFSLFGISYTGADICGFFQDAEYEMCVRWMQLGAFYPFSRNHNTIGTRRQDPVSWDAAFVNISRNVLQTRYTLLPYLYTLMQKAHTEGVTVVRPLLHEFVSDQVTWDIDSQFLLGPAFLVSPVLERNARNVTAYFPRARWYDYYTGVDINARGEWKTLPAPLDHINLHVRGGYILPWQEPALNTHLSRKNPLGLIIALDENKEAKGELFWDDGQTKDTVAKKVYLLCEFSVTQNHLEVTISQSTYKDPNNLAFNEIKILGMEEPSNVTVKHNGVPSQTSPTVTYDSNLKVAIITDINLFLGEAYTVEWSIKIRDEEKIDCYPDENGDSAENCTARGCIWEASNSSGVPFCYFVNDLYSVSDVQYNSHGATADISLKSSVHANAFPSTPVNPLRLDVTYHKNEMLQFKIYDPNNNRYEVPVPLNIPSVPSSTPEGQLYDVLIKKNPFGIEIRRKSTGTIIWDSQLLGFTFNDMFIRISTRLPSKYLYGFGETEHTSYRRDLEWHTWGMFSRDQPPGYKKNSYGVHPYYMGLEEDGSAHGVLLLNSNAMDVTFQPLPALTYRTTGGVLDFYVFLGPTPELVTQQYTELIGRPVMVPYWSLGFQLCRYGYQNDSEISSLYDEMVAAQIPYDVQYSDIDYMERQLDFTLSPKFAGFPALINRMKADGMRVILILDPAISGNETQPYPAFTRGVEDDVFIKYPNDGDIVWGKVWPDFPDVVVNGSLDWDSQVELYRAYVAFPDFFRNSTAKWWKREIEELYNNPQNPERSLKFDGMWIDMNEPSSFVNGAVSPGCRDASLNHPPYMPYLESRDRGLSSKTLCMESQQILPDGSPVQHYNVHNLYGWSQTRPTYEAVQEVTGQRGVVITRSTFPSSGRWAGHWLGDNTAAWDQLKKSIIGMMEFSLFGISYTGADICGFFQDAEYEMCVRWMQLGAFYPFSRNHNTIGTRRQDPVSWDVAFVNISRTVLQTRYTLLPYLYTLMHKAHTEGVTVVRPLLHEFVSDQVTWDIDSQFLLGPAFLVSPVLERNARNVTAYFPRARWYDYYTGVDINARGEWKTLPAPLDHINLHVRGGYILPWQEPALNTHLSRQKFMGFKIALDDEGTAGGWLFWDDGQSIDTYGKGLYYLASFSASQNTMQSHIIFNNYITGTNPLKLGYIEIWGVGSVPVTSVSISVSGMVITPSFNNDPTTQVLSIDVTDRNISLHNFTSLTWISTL

IC50 [1]: 8.95 µM
IC50 [2]: 0.746 µM
IC50 [3]: 15 µM
IC50 [4]: 0.746 µM
IC50 [5]: 0.516 µM
IC50 [6]: 10.5 µM
IC50 [7]: 7.8 µM
IC50 [8]: 0.803 µM
IC50 [9]: 0.688 µM
IC50 [10]: 20.1 µM
SMILES: Cc1ccc2[nH]c(=O)c(C)nc2c1

IC50 [1]: 5.78 µM
IC50 [2]: 0.673 µM
IC50 [3]: 9.03 µM
IC50 [4]: 0.729 µM
IC50 [5]: 0.841 µM
IC50 [6]: 7.52 µM
IC50 [7]: 6.28 µM
IC50 [8]: 0.785 µM
IC50 [9]: 0.561 µM
IC50 [10]: 12.9 µM
SMILES: Cc1nc2cc(F)ccc2[nH]c1=O

IC50 [11]: 166 µM
SMILES: COc1ccc(C(=O)Nc2cccc(C(=O)/C=C3/Nc4ccccc4NC3=O)c2)cc1

IC50 [11]: 40.1 µM
SMILES: O=C(/C=C/c1ccccc1)/C=C1/Nc2ccccc2NC1=O

IC50 [11]: 276 µM
SMILES: COc1ccc(C2SCC(=O)N2c2ccc3nc(Cc4ccc(O)cc4)c(=O)[nH]c3c2)cc1 (centres undefined)

IC50 [11]: 301 µM
SMILES: CC(C)c1nc2ccc(N3C(=O)CSC3c3ccc([N+](=O)[O-])cc3)cc2[nH]c1=O (centres undefined)

IC50 [11]: 9.99 µM
SMILES: O=c1[nH]c2ccccc2nc1N/N=C/c1cccs1

IC50 [11]: 13.9 µM
SMILES: COc1cccc(/C=N/Nc2nc3ccccc3[nH]c2=O)c1

IC50 [11]: 23 µM
SMILES: O=c1[nH]c2ccccc2n2c(-c3ccc([N+](=O)[O-])cc3[N+](=O)[O-])ccc12

IC50 [11]: 12.9 µM
SMILES: O=c1[nH]c2ccccc2n2c(-c3ccc(O)cc3O)ccc12

IC50 [11]: 13 µM
SMILES: O=c1[nH]c2ccccc2n2c(-c3ccc(Cl)c(Cl)c3)ccc12

IC50 [11]: 83.8 µM
SMILES: Cc1ccc(NC(=O)Cn2c(=O)c(C)nc3ccccc32)c([N+](=O)[O-])c1

IC50 [11]: 41.3 µM
SMILES: Cc1nc2ccccc2n(CC(=O)N/N=C/c2ccc(OCCn3cc(CN4CCOCC4)nn3)cc2)c1=O

IC50 [11]: 42.2 µM
SMILES: Cc1nc2ccccc2n(CC(=O)N/N=C/c2ccc(OCCn3cc(CN4CCCCC4)nn3)cc2)c1=O

IC50 [11]: 45.8 µM
SMILES: Cc1nc2ccccc2n(CC(=O)N/N=C/c2ccc(OCCn3cc(CN4CCCC4)nn3)cc2)c1=O

IC50 [11]: 48.2 µM
SMILES: Cc1ccc(-n2cc(COc3ccc(/C=N/NC(=O)Cn4c(=O)c(C)nc5ccccc54)cc3)nn2)cc1
